# System: bicistronic HCV replicon (replicon RNA, GenBank Accession No. AJ242654)
# Assay: HCV Replicon Assay
# Format: cell-based
# Settings: Hepatitis C virus, 72 h, read-out: Replicon IC50
row,Structure (SMILES),IC50 [nM]
1,"CCc1cc2c(cc1F)c(C#N)c(-c1ccc(S(=O)(=O)NC3(C(F)(F)F)CC3)cn1)n2-c1ncccn1 [compound 864, 6-[3-cyano-6-ethyl-5-fluoro-1-(pyrimidin-2-yl)-1H-indol-2-yl]-N-[1-(trifluoromethyl)cyclopropyl]pyridine-3-sulfonamide]",< 500
2,"N#Cc1c(-c2ccc(S(=O)(=O)NC(CF)CF)cn2)n(C2CCC2)c2cc(C3CCC3)ccc12 [compound 342, 6-(3-cyano-1,6-dicyclobutyl-1H-indol-2-yl)-N-(1,3-difluoropropan-2-yl)pyridine-3-sulfonamide]",500 to 2000
3,"N#Cc1c(-c2ncc(S(=O)(=O)NC(CF)CF)cn2)n(C2CCC2)c2ccc(C(F)F)cc12 [compound 379, 2-[3-cyano-1-cyclobutyl-5-(difluoromethyl)-1H-indol-2-yl]-N-(1,3-difluoropropan-2-yl)pyrimidine-5-sulfonamide]",< 500
4,"C[C@H](NS(=O)(=O)c1ccc(-c2c(C#N)c3ccc(OC(F)(F)F)cc3n2C2CCCCC2)nc1)C(F)(F)F [compound 459, 6-[3-cyano-1-cyclohexyl-6-(trifluoromethoxy)-1H-indol-2-yl]-N-[(2S)-1,1,1-trifluoropropan-2-yl]pyridine-3-sulfonamide]",< 500
5,"C[C@H](NS(=O)(=O)c1ccc(-c2c(C#N)c3ccc(Cl)cc3n2C2CCCC2)nc1)C1CC1 [compound 155, 6-(6-chloro-3-cyano-1-cyclopentyl-1H-indol-2-yl)-N-[(1S)-1-cyclopropylethyl]pyridine-3-sulfonamide]",< 500
6,"N#Cc1c(-c2ncc(S(=O)(=O)NC(CF)CF)cn2)n(C2CCCC2)c2ccc(Cl)cc12 [compound 188, 2-(5-chloro-3-cyano-1-cyclopentyl-1H-indol-2-yl)-N-(1,3-difluoropropan-2-yl)pyrimidine-5-sulfonamide]",< 500
7,"C[C@H](NS(=O)(=O)c1ccc(-c2c(C#N)c3ccc(CC(F)F)cc3n2CC2CC2)nc1)C(F)(F)F [compound 618, 6-[3-cyano-1-(cyclopropylmethyl)-6-(2,2-difluoroethyl)-1H-indol-2-yl]-N-[(2S)-1,1,1-trifluoropropan-2-yl]pyridine-3-sulfonamide]",< 500
8,"Cc1ccc2c(C#N)c(-c3ncc(S(=O)(=O)N[C@@H](C)C4CC4)cn3)n(C3CCC3)c2c1 [compound 202, 2-(3-cyano-1-cyclobutyl-6-methyl-1H-indol-2-yl)-N-[(1S)-1-cyclopropylethyl]pyrimidine-5-sulfonamide]",< 500
9,"N#Cc1c(-c2ccc(S(=O)(=O)NC(CF)CF)cn2)n(C2CCCC2)c2cc(O)c(F)cc12 [compound 575, 6-(3-cyano-1-cyclopentyl-5-fluoro-6-hydroxy-1H-indol-2-yl)-N-(1,3-difluoropropan-2-yl)pyridine-3-sulfonamide]",< 500
10,"Cc1cc2c(cc1F)c(C#N)c(-c1cc(C)c(S(=O)(=O)N[C@@H](C)C(F)(F)F)cn1)n2-c1ccccn1 [compound 854, 6-[3-cyano-5-fluoro-6-methyl-1-(pyridin-2-yl)-1H-indol-2-yl]-4-methyl-N-[(2S)-1,1,1-trifluoropropan-2-yl]pyridine-3-sulfonamide]",< 500
11,"Cc1cc2c(cc1F)cc(-c1ccc(S(=O)(=O)N[C@@H](C)C(F)(F)F)cn1)n2-c1nncs1 [compound 958, 6-[5-fluoro-6-methyl-1-(1,3,4-thiadiazol-2-yl)-1H-indol-2-yl]-N-[(2S)-1,1,1-trifluoropropan-2-yl]pyridine-3-sulfonamide]",500 to 2000
12,"Cc1ccc2c(C#N)c(-c3ccc(S(=O)(=O)N[C@@H](C)C4CC4)cn3)n(C3CCCC3)c2c1 [compound 426, 6-(3-cyano-1-cyclopentyl-6-methyl-1H-indol-2-yl)-N-[(1S)-1-cyclopropylethyl]pyridine-3-sulfonamide]",< 500
13,"CC(C)NS(=O)(=O)c1cnc(-c2c(C#N)c3ccc(Cl)cc3n2C2CCCC2)nc1 [compound 189, 2-(6-chloro-3-cyano-1-cyclopentyl-1H-indol-2-yl)-N-(propan-2-yl)pyrimidine-5-sulfonamide]",< 500
